This assay deals with glutathione S-transferase (Plasmodium falciparum). Briefly: A range of natural products were screened for inhibition of PfGST by GST assay with CDNB as a substrate, using a 96-well SpectraMax 340 microplate spectrophotometer equipped with a kinetics mode (Molecular Devices, California). The final concentration of CDNB was 0.5 mM and of GSH was 1mM. Ethacrynic acid (ETA) and haemin were used as positive controls. The incub.
For the compound `C=C1C(=O)OC2/C=C(\COC(C)=O)CC/C=C(\CO)CC(OC(C)=O)[C@@H]12` (stereo partly drawn) [JB42C], it took 8.5 µM to reach half-maximal inhibition (IC50).
The value for `C=Cc1c(OC=O)cc(O)c2c1OC(c1ccc(O)c(O)c1)C(O)C2` (stereo not drawn) [TRAL-1] was 12 µM; that for `COC(=O)[C@@H]1[C@@H]2C[C@H]3N(C)CC[C@@]34c3ccccc3N(C(C)=O)[C@H]4[C@@H]2CO[C@@H]1C` [Malagashanine] was over 100 µM.

These data come from BindingDB's records for doi:10.3109/14756366.2010.486793 (University of Zimbabwe, 2010).
